EC50 and IC50 data for 15 compounds are collected here from patent US11566007B2, “Ras inhibitors” (Revolution Medicines, Inc., priority 2019, dated 2023).

As a reminder, the EC50 is the concentration needed to bring the measured effect to its halfway point. For orientation: IC50 means the concentration that inhibits the measured activity by half.

For assay [1], the system named is NCI-H358 cells (K-Ras G12C). Nature of the assay: Potency assay: pERK in NCI-H358 cells. The format is cell-based, human. To be noted: Homo sapiens, NCI-H358; H358 KRAS G12C; read-out: pERK EC50. In a few lines: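 Inhibition of cellular pERK after a 4 h treatment, detected by AlphaLISA or In-Cell Western. IC50 from a four-parameter concentration-response fit.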

Assay [2] concerns NCI-H358 (K-Ras G12C). Nature of the assay: CellTiter-Glo cell viability assay, NCI-H358. To be noted: Homo sapiens, NCI-H358, 120 h, NCI-H358, 5-day treatment; class symbols; read-out: Additional H358 Cell Viability assay data (K-Ras G12C, IC50). The format is cell-based, human. In a few lines:
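Compounds were dispensed directly onto K-Ras mutant cells and incubated until day 5, then plates were equilibrated to room temperature for about 30 minutes before CellTiter-Glo luminescence. Signals were normalized as (sample/average DMSO)*100 and fitted by four-parameter logistic fit.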
A general note: In ATP-based viability assays light output follows the ATP content of the culture.

Assay [3] concerns the target KRAS G12D (Homo sapiens (Human), UniProt P01116+P62937, G12D). In words: Ras-Raf (BRAF RBD) disruption / FRET / MOA assay, KRAS G12D. The format is biochemical. To be noted: Ras-Raf disruption/FRET/MOA assay; class symbols; read-out: KRAS G12D FRET data IC50. In a few lines:
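A 10-point, 3-fold dilution series topping at 30 μM final was incubated 3 h at 25° C with the Ras/cyclophilin A/BRAF RBD mixture.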

Assay [4] has as its target KRAS Q61H (Homo sapiens (Human), UniProt P01116+P62937, Q61H). Nature of the assay: Ras-Raf (BRAF RBD) disruption / FRET / MOA assay, KRAS Q61H. The format is biochemical. To be noted: Ras-Raf disruption/FRET/MOA assay; class symbols; read-out: KRAS Q61H FRET data IC50. In a few lines:
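Compounds (30 μM top final, 10-point 3-fold dilutions) incubated 3 h at 25° C with nucleotide-loaded Ras, cyclophilin A and BRAF RBD. Detection with 10 nM anti-His Eu-W1024 and 50 nM anti-GST allophycocyanin over another 1.5 h. Lowered TR-FRET ratio relative to DMSO wells gives IC50.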

Where only a bound is given, the exact number is not on record here.

Chain of KRAS Q61H (P01116-2 other isoform, or with tags, fused parts or gaps Q61H): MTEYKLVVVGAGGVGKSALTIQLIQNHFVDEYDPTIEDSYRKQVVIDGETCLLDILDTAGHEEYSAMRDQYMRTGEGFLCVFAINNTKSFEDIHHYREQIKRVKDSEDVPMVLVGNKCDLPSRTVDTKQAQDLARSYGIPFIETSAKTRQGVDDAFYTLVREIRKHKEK
Chain of KRAS Q61H (P62937 whole entry): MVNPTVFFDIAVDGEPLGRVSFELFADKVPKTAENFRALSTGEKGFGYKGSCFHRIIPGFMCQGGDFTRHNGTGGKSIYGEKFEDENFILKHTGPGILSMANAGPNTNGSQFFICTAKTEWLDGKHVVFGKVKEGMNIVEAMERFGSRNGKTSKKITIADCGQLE
Chain of KRAS G12D (P01116-2 other isoform, or with tags, fused parts or gaps G12D): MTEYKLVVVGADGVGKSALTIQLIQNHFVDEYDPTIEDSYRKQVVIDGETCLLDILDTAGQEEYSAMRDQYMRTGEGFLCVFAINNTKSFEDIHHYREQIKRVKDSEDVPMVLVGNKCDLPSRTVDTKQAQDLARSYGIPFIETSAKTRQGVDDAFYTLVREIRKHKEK
Chain of KRAS G12D (P62937 whole entry): as the sequence (P62937 whole entry) above

As to `C=CC(=O)N(C)CCN1CCN(C(=O)N(C)[C@H](C(=O)N[C@H]2Cc3nc(cs3)-c3ccc4c(c3)c(c(-c3cccnc3[C@H](C)OC)n4CC)CC(C)(C)COC(=O)[C@@H]3CCCN(N3)C2=O)C(C)C)CC1` (atropisomer, axis not shown) [Example A630], in assay [1], the EC50 is less than 5 µM. Further, the IC50 lay within 0.01 to 0.1 µM in assay [2], 1 to 10 µM in assay [3] and 0.1 to 1 µM in assay [4].

For the compound `C=CC(=O)N(C)[C@H]1CN(C(=O)N(C)[C@H](C(=O)N[C@H]2Cc3nc(cs3)-c3ccc4c(c3)c(c(-c3cccnc3[C@H](C)OC)n4CC)CC(C)(C)COC(=O)[C@@H]3CCCN(N3)C2=O)C(C)C)C[C@H]1F` (atropisomer, axis not shown) [Example A631], the EC50 in assay [1] is less than 5 µM. The IC50 in assay [2] is less than 0.01 µM; in assay [3] it was 1 to 10 µM; in assay [4], 0.01 to 0.1 µM.

In the case of `C=CC(=O)N1CC[C@H](C(=O)N(C)[C@@H](CC(F)(F)F)C(=O)N[C@H]2Cc3cccc(c3)-c3ccc4c(c3)c(c(-c3cccnc3[C@H](C)OC)n4CC)CC(C)(C)COC(=O)[C@@H]3CCCN(N3)C2=O)C1` (atropisomer, axis not shown) [Example A639], the EC50 in assay [1] is less than 5 µM. The IC50 in assay [2] is 0.1 to 1 µM; in assay [3], greater than 10 µM; in assay [4], 1 to 10 µM.

In the case of `CCn1c(-c2cccnc2[C@H](C)OC)c2c3cc(ccc31)N1CCO[C@@H](C[C@H](NC(=O)[C@@H](COC3CCN(C(=O)C#CC(C)(C)N(C)C)CC3)C(C)C)C(=O)N3CCC[C@H](N3)C(=O)OCC(C)(C)C2)C1` (atropisomer, axis not shown) [Example A643, (2R)-2-(((1-(4-(dimethylamino)-4-methylpent-2-ynoyl)piperidin-4-yl)oxy)methyl)-N-((2^2S,6^3S,4S)-1^1-ethyl-1^2-(2-((S)-1-methoxyethyl)pyridin-3-yl)-10,10-dimethyl-5,7-dioxo-6^1,6^2,6^3,6^4,6^5,6^6-hexahydro-1^1H-8-oxa-2(4,2)-morpholina-1(5,3)-indola-6(1,3)-pyridazinacycloundecaphane-4-yl)-3-methylbutanamide], the EC50 in assay [1] is less than 5 µM. The results for the IC50 in assay [2], in assay [3] and in assay [4] were less than 0.01 µM, greater than 10 µM and greater than 10 µM, respectively.

`CCn1c(-c2cccnc2[C@H](C)OC)c2c3cc(ccc31)-c1cccc(c1)C[C@H](NC(=O)[C@@H](COC1CN(C(=O)C#C[C@H]3COCCN3C)C1)C(C)C)C(=O)N1CCC[C@H](N1)C(=O)OCC(C)(C)C2` (atropisomer, axis not shown) [Example A644]: the EC50 in assay [1] is less than 5 µM. Moreover, the IC50 in assay [2] is less than 0.01 µM; in assay [3], greater than 10 µM; in assay [4] it was greater than 10 µM.

For the compound `CCn1c(-c2cccnc2[C@H](C)OC)c2c3cc(ccc31)-c1cccc(c1)C[C@H](NC(=O)[C@@H](COC1CN(C(=O)C#C[C@@H]3OCCCN3C)C1)C(C)C)C(=O)N1CCC[C@H](N1)C(=O)OCC(C)(C)C2` (atropisomer, axis not shown) [Example A648], the EC50 in assay [1] is less than 5 µM. In addition, the figures for the IC50 in assay [2], in assay [3] and in assay [4] were 0.01 to 0.1 µM, greater than 10 µM and greater than 10 µM, respectively.

For the compound `CCn1c(-c2cccnc2[C@H](C)OC)c2c3cc(ccc31)-c1cnc(o1)C[C@H](NC(=O)[C@@H](COC1CN(C(=O)C#CC(C)(C)N(C)C)C1)C(C)C)C(=O)N1CCC[C@H](N1)C(=O)OCC(C)(C)C2` (atropisomer, axis not shown) [Example A649], in assay [1], the concentration for a half-maximal effect (EC50) is less than 5 µM. The IC50 in assay [2] is 0.01 to 0.1 µM; in assay [3], greater than 10 µM; in assay [4], greater than 10 µM.

In the case of `CCn1c(-c2cccnc2[C@H](C)OC)c2c3cc(ccc31)-c1csc(n1)C[C@H](NC(=O)[C@H](C(C)C)N(C)C(=O)N1CCC3(CC1)CN(C(=O)/C=C/CN(C)C)C3)C(=O)N1CCC[C@H](N1)C(=O)OCC(C)(C)C2` (atropisomer, axis not shown) [Example A650], the EC50 in assay [1] is less than 5 µM. Also, the IC50 is 0.01 to 0.1 µM in assay [2], 0.1 to 1 µM in assay [3] and 0.01 to 0.1 µM in assay [4].

With `CCn1c(-c2cccnc2[C@H](C)OC)c2c3cc(ccc31)-c1csc(n1)C[C@H](NC(=O)[C@H](C(C)C)N(C)C(=O)N1CCC13CN(C(=O)C#CC(C)(C)N(C)C)C3)C(=O)N1CCC[C@H](N1)C(=O)OCC(C)(C)C2` (atropisomer, axis not shown) [Example A656], the EC50 in assay [1] is less than 5 µM. Further, the figures for the IC50 in assay [2], in assay [3] and in assay [4] were 0.01 to 0.1 µM, 1 to 10 µM and 0.01 to 0.1 µM, respectively.

Consider `CO[C@@H](C)c1ncccc1-c1c2c3cc(ccc3n1CC(F)(F)F)-c1csc(n1)C[C@H](NC(=O)[C@H](C(C)C)N(C)C(=O)N1CCN(C(=O)/C=C/CN(C)C)C3(CC3)C1)C(=O)N1CCC[C@H](N1)C(=O)OCC(C)(C)C2` (atropisomer, axis not shown) [Example A664], for which, in assay [1], the EC50 is less than 5 µM. Also, the IC50 in assay [2], in assay [3] and in assay [4] was 0.01 to 0.1 µM each time.

On to `C=CC(=O)N1CC(N2CCN(C(=O)N(C)[C@H](C(=O)N[C@H]3Cc4nc(cs4)-c4ccc5c(c4)c(c(-c4cccnc4[C@H](C)OC)n5CC)CC(C)(C)COC(=O)[C@@H]4CCCN(N4)C3=O)C(C)C)CC2)C1` (atropisomer, axis not shown) [Example A668], for which, in assay [1], the EC50 was less than 5 µM. The figures for the IC50 in assay [2], in assay [3] and in assay [4] were 0.01 to 0.1 µM, 1 to 10 µM and 0.01 to 0.1 µM, respectively.

`CO[C@@H](C)c1ncccc1-c1c2c3cc(ccc3n1CC(F)(F)F)-c1nc(co1)C[C@H](NC(=O)[C@@H](COC1CN(C(=O)C#CC(C)(C)N(C)C)C1)C(C)C)C(=O)N1CCC[C@H](N1)C(=O)OCC(C)(C)C2` (atropisomer, axis not shown) [Example A674]: the EC50 in assay [1] is less than 5 µM. Also, the IC50 in assay [2] was less than 0.01 µM; in assay [3], greater than 10 µM; in assay [4], 1 to 10 µM.

Regarding `C=CC(=O)N1CC[C@@]2(COCCN2C(=O)N(C)[C@H](C(=O)N[C@H]2Cc3nc(cs3)-c3ccc4c(c3)c(c(-c3cccnc3[C@H](C)OC)n4CC)CC(C)(C)COC(=O)[C@@H]3CCCN(N3)C2=O)C(C)C)C1` (atropisomer, axis not shown) [Example A677], the EC50 in assay [1] is less than 5 µM. Further, the IC50 in assay [2] is less than 0.01 µM; in assay [3], 1 to 10 µM; in assay [4], 0.1 to 1 µM.

Regarding `C=CC(=O)N1CCC2(CC1)CCN2C(=O)N(C)[C@H](C(=O)N[C@H]1Cc2nc(cs2)-c2ccc3c(c2)c(c(-c2cccnc2[C@H](C)OC)n3CC)CC(C)(C)COC(=O)[C@@H]2CCCN(N2)C1=O)C(C)C` (atropisomer, axis not shown) [Example A678], the EC50 in assay [1] was less than 5 µM. The IC50 in assay [2] fell in the range of 0.01 to 0.1 µM; in assay [3], 0.1 to 1 µM; in assay [4], 0.01 to 0.1 µM.

For `CCn1c(-c2cccnc2[C@H](C)OC)c2c3cc(ccc31)-c1csc(n1)C[C@H](NC(=O)[C@H](C(C)C)N(C)C(=O)N1CCC3(CC1)CN(C(=O)/C=C/C(F)F)C3)C(=O)N1CCC[C@H](N1)C(=O)OCC(C)(C)C2` (atropisomer, axis not shown) [Example A683], in assay [1], the EC50 was less than 5 µM. Besides, the values for the IC50 in assay [2], in assay [3] and in assay [4] were 0.01 to 0.1 µM, 0.1 to 1 µM and 0.01 to 0.1 µM, respectively.
